Test results reported in patent US10660967B2, “Curcumin conjugates and methods of use thereof” (priority 2016, dated 2020).
Read-outs that look alike come from different tables or passages of the source.

Key:
[1] = tested on: PHA-stimulated splenocytes; test: Proliferative response of PHA-stimulated splenocytes (MTT assay); assay type: cell-based; conditions: for Stimulation Index (average ± SD): PHA 5 μg/ml, 72 hr, compounds at 5 μM (method says 10 μM), ratio of O.D. versus vehicle control
Procedure: Immunomodulatory effects of the synthesized curcumin conjugates on the proliferative response of PHA-stimulated splenocytes were evaluated. The effect of curcumin and its amino acid conjugates on splenocyte viability and proliferation in response to a T cell miotgen (Phytohaemagglutinin; PHA) was evaluated using the MTT assay. Freshly prepared splenocytes (1×10^6 cells/200 μl/well) were cultured in a 96-well U-bottom microtiter plate (Nunc) in complete medium. Cells were treated with tested compounds at a final concentration of 10 μM, vehicle (DMSO) or left untreated in triplicate then incubated at 37° C. and 5% CO2. When testing the immunoregulatory effects of the compounds on splenocyte stimulation, PHA (5 μg/ml) was added to the culture media to induce T cell proliferation. The proliferative response to PHA+vehicle and vehicle alone served as controls. After 72 hr, media were removed after pelleting the cells by centrifugation and MTT salt solution (5 mg/ml) was added into each well then incubated at 37° C. for 4 h. Afterwards, formazan crystals were dissolved by adding 150 μl 10% sodium dodecyl sulfate (SDS). Absorbance was measured with a spectrophotometer at 570 nm and reference wavelength of 690 nm.
Splenocyte stimulation index was determined as the ratio of O.D. values in tested compounds versus vehicle control cultures.

[2] = tested on: lipopolysaccharide-stimulated peritoneal macrophages; test: Production of nitric oxide by lipopolysaccharide-stimulated peritoneal macrophages (Greiss reagent); assay type: cell-based; set-up: Potency (%): % inhibition of nitric oxide production relative to lipopolysaccharide-stimulated macrophages: concentration or dose not given beside the values; conditions: LPS-stimulated peritoneal macrophages; for Nitric oxide (nitrite) concentration, μM (average ± SD): 24 h, nitrite by Greiss reagent
Procedure: The effects of the synthesized curcumin conjugates on the production of nitric oxide (μM) by lipopolysaccharide-stimulated peritoneal macrophages were evaluated.
Two milliliters of macrophage cells were seeded in 12-well tissue culture plates in nitrite-free medium supplemented with 0.1% bovine serum albumin and incubated at 37° C. LPS±epinephrine, norepinephrine, or dopamine at […] concentrations was added to some wells. The concentrations of LPS used ranged from 0.5 to 10 ng/ml. After incubation for 24 h, supernatants were collected for measuring nitric oxide (NO) by spectrophotometry. The production of NO was determined from the accumulation of nitrite (NO2), the metabolic end product of NO metabolism, in the medium using the Greiss reagent. About equal volumes (100 μl) of sample and Greiss reagent (1:1 mixture of 1% sulfanilamide in 5% phosphoric acid, and 0.1% a-naphthylamine in distilled water) were mixed and incubated at room temperature for 15 min, and absorbance was measured at 532 nm on a spectrophotometer.

[3] = tested on: Salmonella typhi ATCC19430; test: Antimicrobial MIC, agar dilution; assay type: cell-based; conditions: Salmonella enterica, read-out: Minimum inhibitory concentration (MIC)
[4] = tested on: HCT116 (colon) carcinoma cell line; test: Anti-tumor properties, MTT; assay type: cell-based; conditions: Homo sapiens, HCT-116, 72 h; for activity at 100 µM: HCT116, 100 μM, read-out: Percentage growth of tumor cell lines treated with the tested compounds (±SD)
Procedure: (§1) Anti-tumor properties of curcumin conjugates were evaluated. The synthesized curcumin-amino acid conjugates and curcumin itself were screened for their antitumor properties against human tumor cell lines utilizing HepG2 (hepatocellular), MCF7 (breast), and HCT116 (colon) carcinoma cell lines by the standard mitochondrial dependent reduction of yellow MTT [3-(4,5-dimethylthiazol-2-yl)-2,5-diphenyl-tetrazolium bromide] to purple formazan technique. Cancer cells were obtained from the Egyptian Company for Production of Vaccines, Sera and Drugs (VACSERA), Cairo, Egypt. Media, chemicals and supplies for the bio-assay were obtained from Biowest, Gibco and Lonza Companies. Cells were suspended in RPMI-1640 medium for HepG2, DMEMF12 for MCF-7, and DMEM for HCT116 in addition to 1% antibiotic-antimycotic mixture (10 […] potassium penicillin, 10 […] streptomycin sulfate and […] amphotericin B), 10% fetal bovine serum and 1% L-glutamine at 37° C., under 5% CO2 and 95% humidity. Cells were seeded at a concentration of 10×10^3 cells per well in fresh complete growth medium in 96-well tissue culture microtiter plates for 24 h. Media was aspirated, 180 μL fresh medium (without serum) were added and cells were incubated with different concentrations of sample to give a final concentration of 100 μM. 0.5% DMSO was used as a negative control and doxorubicin was used as a positive control (standard reference). Triplicate wells were prepared for each individual tested compound/dose. After 72 h of incubation, the medium was aspirated, 40 μL MTT salt (2.5 mg ml^1) were added to each well and incubated for an additional 4 h at 37° C. To stop the reaction and dissolve the formed crystals, 200 μL of 10% sodium dodecyl sulfate (SDS) in deionized water were added to each well and incubated overnight at 37° C. The absorbance was then measured at 595 nm with a reference wavelength of 620 nm. Data were collected as mean values for experiments performed in triplicates for each compound which had been measured by MTT assay.
(§2) The percentage of cell survival was calculated according to equation (4): […]
(§3) The IC50 was determined using Graph-Pad PRISM version-5 software. Statistical calculations for determination of the mean and standard deviation (SD) values were determined by SPSS 16 software.

[5] = tested on: HepG2 (hepatocellular) carcinoma cell line; test: Anti-tumor properties, MTT; assay type: cell-based; conditions: Homo sapiens, 72 h; for activity at 100 µM: HepG2, 100 μM, read-out: Percentage growth of tumor cell lines treated with the tested compounds (±SD)
Procedure: as §1, §2, §3

[6] = tested on: MCF7 (breast) carcinoma cell line; test: Anti-tumor properties, MTT; assay type: cell-based; conditions: Homo sapiens, 72 h; for activity at 100 µM: MCF7, 100 μM, read-out: Percentage growth of tumor cell lines treated with the tested compounds (±SD)
Procedure: as §1, §2, §3

MCF-7 cells = test: Effect on doxorubicin induced cytotoxicity (MTT); conditions: for viability at 100 µM: read-out: Percentage of viable cells MCF-7 (average ± SD)
Procedure: The effects of curcumin conjugates on doxorubicin induced cytotoxicity were evaluated. In order to further examine whether curcumin derivatives can enhance conventional chemotherapeutic agents, MCF-7 cells were treated with 100 μM curcumin derivatives alone or in combination with 10 μM doxorubicin (DOX) for 48 hr. Control cultures received only medium, vehicle (DMSO), or vehicle+DOX. The percentage of viable cells was determined by MTT assay according to equation (5): […]

[7] = tested on: Staphylococcus aureus ATCC25923; test: Antimicrobial MIC, agar dilution
[8] = tested on: Streptococcus pyogenes ATCC19615; test: Antimicrobial MIC, agar dilution
[9] = tested on: Pseudomonas aeruginosa ATCC27853; test: Antimicrobial MIC, agar dilution
[10] = tested on: Candida albicans (local isolate); test: Antimicrobial MIC, agar dilution; conditions: Candida albicans, read-out: Minimum inhibitory concentration (MIC)
[11] = 10 μM DOX in combination with 100 μM curcumin derivative, 48 hr
[12] = ATCC25923, 18 h, read-out: Minimum inhibitory concentration (MIC)
[13] = ATCC25923, read-out: Minimum inhibitory concentration (MIC)
[14] = ATCC19615, 18 h, read-out: Minimum inhibitory concentration (MIC)
[15] = ATCC19615, read-out: Minimum inhibitory concentration (MIC)
[16] = ATCC27853, 18 h, read-out: Minimum inhibitory concentration (MIC)
[17] = ATCC27853, read-out: Minimum inhibitory concentration (MIC)

Structure (SMILES)	Stimulation Index (average ± SD) [1]	Potency (%): % inhibition of nitric oxide production relative to lipopolysaccharide-stimulated macrophages [2]	Nitric oxide (nitrite) concentration, μM (average ± SD) [2]	MIC ([3]; 18 h)	MIC [3]	activity at 100 µM [4]	activity at 100 µM [5]	activity at 100 µM [6]	Percentage of viable cells MCF-7 (average ± SD) (MCF-7 cells; [11])	viability at 100 µM (MCF-7 cells; Homo sapiens, MCF7, 48 h)	MIC [7, 12]	MIC [7, 13]	MIC [8, 14]	MIC [8, 15]	MIC [9, 16]	MIC [9, 17]	MIC ([10]; 18 h)	MIC [10]	also measured
COc1cc(/C=C/C(=O)CC(=O)/C=C/c2ccc(OC(=O)[C@H](C)NC(=O)OCc3ccccc3)c(OC)c2)ccc1OC(=O)[C@H](C)NC(=O)OCc1ccccc1 [Cbz-Ala-Cur, ((1E,6E)-3,5-dioxohepta-1,6-diene-1,7-diyl)bis(2-methoxy-4,1-phenylene) (2S,2′S)-bis(2-(((benzyloxy)carbonyl)amino)propanoate)]	2.70 ± 0.25	8.86%	24.89 ± 1.65 µM	0.5 µg/mL	0.642 µM	86.6 ± 6.2%	82.3 ± 4.2%	70 ± 4.1%	46.65 ± 2.06	99.5 ± 4.47%	0.25 µg/mL	0.321 µM	0.125 µg/mL	0.161 µM	2 µg/mL	2.57 µM	2 µg/mL	2.57 µM	
COc1cc(/C=C/C(=O)CC(=O)/C=C/c2ccc(OC(=O)CNC(=O)OCc3ccccc3)c(OC)c2)ccc1OC(=O)CNC(=O)OCc1ccccc1 [Cbz-Gly-Cur, ((1E,6E)-3,5-dioxohepta-1,6-diene-1,7-diyl)bis(2-methoxy-4,1-phenylene) bis(2-(((benzyloxy)carbonyl)amino)acetate)]	2.64 ± 0.10	10.11%	24.55 ± 0.66 µM	0.5 µg/mL	0.666 µM	88.1 ± 2.6%	79.8 ± 8.8%	60 ± 2.7%	45.44 ± 1.88	97.4 ± 5.3%	0.125 µg/mL	0.166 µM	0.125 µg/mL	0.166 µM	1 µg/mL	1.33 µM	0.5 µg/mL	0.666 µM	
COc1cc(/C=C/C(=O)CC(=O)/C=C/c2ccc(OC(=O)[C@H](CC(C)C)NC(=O)OCc3ccccc3)c(OC)c2)ccc1OC(=O)[C@H](CC(C)C)NC(=O)OCc1ccccc1 [Cbz-Leu-Cur, ((1E,6E)-3,5-dioxohepta-1,6-diene-1,7-diyl)bis(2-methoxy-4,1-phenylene) (2S,2′S)-bis(2-(((benzyloxy)carbonyl)amino)-4-methylpentanoate)]	2.83 ± 0.17	4.57%	26.06 ± 0.65 µM	0.25 µg/mL	0.29 µM	94.7 ± 5.8%	85.1 ± 5.7%	85.7 ± 1.2%	50.17 ± 4.94	98.2 ± 3.44%	0.125 µg/mL	0.145 µM	0.125 µg/mL	0.145 µM	0.125 µg/mL	0.145 µM	0.5 µg/mL	0.579 µM	
COc1cc(/C=C/C(=O)CC(=O)/C=C/c2ccc(OC(=O)[C@H](Cc3ccccc3)NC(=O)OCc3ccccc3)c(OC)c2)ccc1OC(=O)[C@H](Cc1ccccc1)NC(=O)OCc1ccccc1 [Cbz-Phe-Cur, ((1E,6E)-3,5-dioxohepta-1,6-diene-1,7-diyl)bis(2-methoxy-4,1-phenylene) (2S,2′S)-bis(2-(((benzyloxy)carbonyl)amino)-3-phenylpropanoate)]	2.91 ± 0.13	3.60%	26.33 ± 0.52 µM	0.125 µg/mL	0.134 µM	96.4 ± 4%	99.6 ± 8.7%	69.3 ± 3%	43.40 ± 4.74	105 ± 4.5%	0.125 µg/mL	0.134 µM	0.125 µg/mL	0.134 µM	0.25 µg/mL	0.269 µM	2 µg/mL	2.15 µM	splenocyte proliferation, fold relative to untreated control cells ([1]; in the presence of PHA, text of b265): 3.81 fold
COc1cccc2c1C(=O)c1c(O)c3c(c(O)c1C2=O)C[C@@](O)(C(=O)CO)C[C@@H]3O[C@H]1C[C@H](N)[C@H](O)[C@H](C)O1 [DOX, doxorubicin, reference compound]																			IC50 ([4]; HCT116, MTT, read-out: IC50): 7.17 µM; IC50 ([5]; HepG2, MTT, read-out: IC50): 34.2 µM; IC50 ([6]; MCF7, MTT, read-out: IC50): 20.9 µM; viability at 10 µM (MCF-7 cells; Homo sapiens, MCF7, 48 h, read-out: Percentage of viable cells MCF-7 (average ± SD), 10 μM DOX in combination with 100 μM curcumin derivative, 48 hr): 44.8%; Percentage of viable cells MCF-7 (average ± SD) (MCF-7 cells; human, 48 h, 100 μM): 0 ± 0.00
